Measurements from ChEMBL document CHEMBL1140268, “Novel and potent cyclic cyanamide-based cathepsin K inhibitors” (Bioorg Med Chem Lett, 2005).

Tests used:
Pro-cathepsin H = target: T1, Pro-cathepsin H (Homo sapiens, UniProt P09668); test: Inhibitory concentration against human cathepsin H using 50 uM L-Arg-beta-naphthalamide
T1 sequence (P09668 whole entry): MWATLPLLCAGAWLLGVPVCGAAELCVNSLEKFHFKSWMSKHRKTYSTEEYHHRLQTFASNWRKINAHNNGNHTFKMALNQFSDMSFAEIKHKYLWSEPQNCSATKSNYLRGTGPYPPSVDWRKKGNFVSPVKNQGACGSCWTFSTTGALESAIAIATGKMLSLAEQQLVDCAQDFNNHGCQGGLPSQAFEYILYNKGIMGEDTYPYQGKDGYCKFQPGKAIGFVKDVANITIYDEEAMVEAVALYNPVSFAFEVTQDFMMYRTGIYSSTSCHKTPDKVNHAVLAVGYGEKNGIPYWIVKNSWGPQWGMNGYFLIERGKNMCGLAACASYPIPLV

Cathepsin B = Cathepsin B (Homo sapiens, UniProt P07858); test: Inhibitory concentration against human cathepsin B using 10 uM Cbz-Phe-Arg-AMC
Cathepsin K = target: T2, Cathepsin K (Homo sapiens, UniProt P43235); test: Inhibitory concentration against human cathepsin K using 10 uM Cbz-Phe-Arg-AMC
T2 sequence (P43235 whole entry): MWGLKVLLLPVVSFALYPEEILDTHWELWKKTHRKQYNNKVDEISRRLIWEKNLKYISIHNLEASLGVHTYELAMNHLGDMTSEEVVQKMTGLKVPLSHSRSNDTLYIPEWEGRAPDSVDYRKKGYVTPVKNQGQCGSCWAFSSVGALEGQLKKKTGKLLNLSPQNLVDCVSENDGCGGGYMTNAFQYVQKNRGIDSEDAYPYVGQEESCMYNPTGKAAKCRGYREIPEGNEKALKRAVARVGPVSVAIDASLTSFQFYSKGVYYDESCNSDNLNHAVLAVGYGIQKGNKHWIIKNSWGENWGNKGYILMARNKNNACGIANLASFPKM

Procathepsin L = Procathepsin L (Homo sapiens, UniProt P07711); test: Inhibitory concentration against human cathepsin L using 5 uM Cbz-Phe-Arg-AMC
Chain of Procathepsin L (P07711 whole entry): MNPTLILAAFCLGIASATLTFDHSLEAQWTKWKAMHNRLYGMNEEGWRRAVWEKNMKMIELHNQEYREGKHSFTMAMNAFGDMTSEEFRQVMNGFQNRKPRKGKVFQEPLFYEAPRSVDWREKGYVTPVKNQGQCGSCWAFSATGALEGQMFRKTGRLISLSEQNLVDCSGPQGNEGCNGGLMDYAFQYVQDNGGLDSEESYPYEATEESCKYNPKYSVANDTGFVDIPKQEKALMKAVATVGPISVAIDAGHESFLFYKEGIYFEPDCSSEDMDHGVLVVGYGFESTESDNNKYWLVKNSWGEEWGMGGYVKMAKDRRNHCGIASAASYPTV

| SMILES | IC50 (Pro-cathepsin H) [nM] | IC50 (Cathepsin B) [nM] | IC50 (Cathepsin K) [nM] | IC50 (Procathepsin L) [nM] |
| --- | --- | --- | --- | --- |
| CC(C)(C)NC(=O)[C@H]1CCCN1C#N | – | – | 8100 | – |
| CC(C)(C)OC(=O)[C@H]1CCCN1C#N | – | – | 300 | – |
| COC(=O)[C@@H]1CN(C#N)C[C@H]1c1ccc(OC)c(OC2CCCC2)c1 | – | – | 430 | – |
| CC(C)(C)OC(=O)[C@@H]1CCCN1C#N | – | – | 60 | – |
| CC(C)(C)OC(=O)N[C@@H]1CCN(C#N)C1 | – | – | 200 | – |
| CC(C)(C)OC(=O)N[C@H]1CCN(C#N)C1 | – | – | 81 | – |
| CC(C)(C)OC(=O)N1CCCN1C#N | – | – | 380 | – |
| CCCC[C@H](C=O)NC(=O)OC(C)(C)C | – | – | 51 | – |
| CN(C(=O)[C@H]1CCCN1C#N)C(C)(C)C | – | – | > 13000 | – |
| CC(C)(C)OC(=O)[C@@H]1CCCCN1C#N | – | – | > 13000 | – |
| N#CN1CCCC1 [CYANO-PYRROLIDINE] | – | – | 2100 | – |

Second part, the compound after the results:

| IC50 (Pro-cathepsin H) [nM] | IC50 (Cathepsin B) [nM] | IC50 (Cathepsin K) [nM] | IC50 (Procathepsin L) [nM] | SMILES |
| --- | --- | --- | --- | --- |
| 580 | 310 | 1.8 | 130 | C[C@@H](CC1CCCCC1)OC(=O)C1CCCN1C#N (stereo not given in full) |
| – | – | 200 | – | CC[C@@H](CC1CCCCC1)OC(=O)N1CCC(NC#N)C1 (stereo not given in full) |
| 8300 | 680 | 12 | 81 | C[C@@H](CC1CCCCC1)OC(=O)N[C@H]1CCN(C#N)C1 |
| 40 | 2.4 | 0.048 | 0.71 | C[C@@H](CC1CCCCC1)OC(=O)C1CCN1C#N (stereo not given in full) |
| – | – | 8.9 | – | CC[C@@H](CC1CCCCC1)OC(=O)NC1CCN(C#N)C1 (stereo not given in full) |
